Results published in patent publication US12054475B2, “Substituted heterocycles as aldehyde dehydrogenase inhibitors” (KayoThera Inc., priority 2021, dated 2024).
pIC50: −log10 of the molar value. Several values for one entry are separate records, joined by “and”; a condition that tells them apart may be missing. Identical values can stand only once. Like-named read-outs stand apart in the source and are kept apart here.

Columns and labels:
[1] = target: T1, hALDH1a2 (Homo sapiens (Human), UniProt O94788); test: Cell based assay: STRA6 mRNA by q-rtPCR in MCF7 cells expressing ALDH1a2; conditions: 20 hours incubation, read-out: IC50 (ALDH1a2), STRA6 mRNA levels
T1 sequence (O94788 whole entry): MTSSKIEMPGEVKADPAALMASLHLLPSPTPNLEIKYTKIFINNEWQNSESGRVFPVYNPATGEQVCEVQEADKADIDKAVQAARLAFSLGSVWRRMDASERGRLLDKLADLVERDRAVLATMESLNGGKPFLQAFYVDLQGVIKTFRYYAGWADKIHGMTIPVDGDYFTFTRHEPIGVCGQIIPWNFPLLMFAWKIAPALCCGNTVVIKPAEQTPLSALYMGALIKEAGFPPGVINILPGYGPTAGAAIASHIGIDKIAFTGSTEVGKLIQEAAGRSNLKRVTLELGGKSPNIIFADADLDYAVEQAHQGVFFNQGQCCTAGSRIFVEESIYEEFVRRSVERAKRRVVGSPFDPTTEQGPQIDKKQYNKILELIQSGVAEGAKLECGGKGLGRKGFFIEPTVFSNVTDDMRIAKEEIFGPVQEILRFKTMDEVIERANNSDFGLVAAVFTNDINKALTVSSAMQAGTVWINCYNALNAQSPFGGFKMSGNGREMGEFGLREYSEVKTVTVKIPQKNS
Description: (§1) MCF7 cells were stably transduced with lentiviral vectors encoding human ALDH1a1, ALDH1a2 or ALDH1a3 or Vector control and selected by puromycin to establish stable cultures that were verified for overexpression by western blotting and Aldefluor activity. Cells were plated into 6 cm plates in regular DMEM media supplement with […]. At the beginning of the assay, cells were washed with PBS for 5 minutes followed by addition of compound solvated into DMEM media with 10% FBS or corresponding DMSO controls, maintaining DMSO at a constant concentration of 0.1% across all samples. Following 20 hours of incubation at 37 C, cells were lysed and RNA was extracted using a Qiagen RNAeasy kit. cDNA was synthesized using the Superscript IV kit and retinoid activation was measured using STRA6 mRNA levels as a proxy as measured by q-rtPCR.

[2] = target: T2, hALDH1a3 (Homo sapiens (Human), UniProt P47895); test: Cell based assay: STRA6 mRNA by q-rtPCR in MCF7 cells expressing ALDH1a3; conditions: 20 hours incubation, read-out: IC50 (Aldh1a3), STRA6 mRNA levels
T2 sequence (P47895 whole entry): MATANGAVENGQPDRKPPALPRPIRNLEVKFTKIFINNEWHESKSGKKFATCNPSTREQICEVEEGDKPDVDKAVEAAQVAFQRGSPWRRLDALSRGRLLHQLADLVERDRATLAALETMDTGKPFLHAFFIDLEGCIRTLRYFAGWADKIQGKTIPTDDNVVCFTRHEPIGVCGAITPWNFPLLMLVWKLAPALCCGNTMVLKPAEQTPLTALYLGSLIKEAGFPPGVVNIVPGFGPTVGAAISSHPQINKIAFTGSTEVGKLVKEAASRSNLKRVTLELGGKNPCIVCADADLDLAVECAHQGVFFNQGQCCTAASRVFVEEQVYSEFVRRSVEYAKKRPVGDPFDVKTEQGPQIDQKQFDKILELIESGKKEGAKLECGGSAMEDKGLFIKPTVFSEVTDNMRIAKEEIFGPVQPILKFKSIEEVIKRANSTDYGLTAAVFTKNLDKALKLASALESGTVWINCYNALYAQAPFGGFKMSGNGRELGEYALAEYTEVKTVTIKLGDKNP
Description: as §1

[3] = Pharmacokinetic profiling in mice; conditions: for plasma half-life, IV bolus dosing / plasma half-life, PO oral gavage dosing / oral bioavailability: male CD-1/C57BL/6 mice; for plasma half-life, IV bolus dosing / oral bioavailability: 1 mg/kg intravenous; for plasma half-life, PO oral gavage dosing / oral bioavailability: 10 mg/kg oral gavage
[4] = test system: primary tumors and metastasis; test: Mouse xenograft models, ALDH1a3 inhibitor in conjunction with paclitaxel; format: in vivo; conditions: with chemotherapy agent paclitaxel
[5] = test system: T3-MCA fibrosarcoma cell line allografts; test: Combination with anti-PD-1 in T3-MCA fibrosarcoma allografts; format: in vivo, C57BL6 syngeneic mice; conditions: for tumor growth as a single agent: 40 mg/kg daily equivalent, oral medicated diet, Day 9 to Day 25
Description: T3-MCA fibrosarcoma cell line allografts were implanted subcutaneously into C57BL6 syngeneic mice. […] Medicated diet was initiated at Day 9 after mice were randomized and continued until termination at Day 25. Anti-PD-1 antibody was administered by intraperitoneal injection at Day 11, 14, 18 and 21 by a 200 uL injection of a 1 mg/mL solution in saline. Tumor volume were measured on day 14, 18, 22, and 25 post inoculation for each group.

[6] = test system: T3-MCA fibrosarcoma cell line allografts; test: T3-MCA fibrosarcoma allograft study; format: in vivo, C57BL6 syngeneic mice; conditions: for tolerability / tumor growth: oral, 40 mg/kg once daily for twelve days
Description: In one allograft study, T3-MCA fibrosarcoma cell line allografts were implanted subcutaneously into C57BL6 syngeneic mice. […] Tumor volume were measured on day 8, 14, and 17 post inoculation for each group, and tumor mass were measured at the end of the study.
In another allograft study, T3-MCA fibrosarcoma cell line allografts were implanted subcutaneously into C57BL6 syngeneic mice.

[7] = test system: K-Ras, p53 −/− undifferentiated pleiomorphic sarcoma cell line allografts; test: K-Ras, p53 -/- undifferentiated pleiomorphic sarcoma allograft study; format: in vivo, C57BL6 syngeneic mice; conditions: single agent, 20 days; Compound 140 40 mg/kg intraperitoneal, MBE1.5 25 mg/kg daily equivalent in diet
Description: In another allograft study, K-Ras, p53 −/− undifferentiated pleiomorphic sarcoma cell line allografts were implanted subcutaneously into C57BL6 syngeneic mice. […] Tumor volume were measured on day 14, 17, and 24 post inoculation for each group, and tumor mass were measured at the end of the study.

[8] = target: T1, hALDH1a2; test: Aldh1a2 enzyme inhibition assay (recombinant enzyme, resorufin fluorescence); format: biochemical
[9] = target: mALDH1a2 (Mus musculus (Mouse), UniProt Q62148); test: as above; format: biochemical
mALDH1a2, sequence (Q62148 whole entry): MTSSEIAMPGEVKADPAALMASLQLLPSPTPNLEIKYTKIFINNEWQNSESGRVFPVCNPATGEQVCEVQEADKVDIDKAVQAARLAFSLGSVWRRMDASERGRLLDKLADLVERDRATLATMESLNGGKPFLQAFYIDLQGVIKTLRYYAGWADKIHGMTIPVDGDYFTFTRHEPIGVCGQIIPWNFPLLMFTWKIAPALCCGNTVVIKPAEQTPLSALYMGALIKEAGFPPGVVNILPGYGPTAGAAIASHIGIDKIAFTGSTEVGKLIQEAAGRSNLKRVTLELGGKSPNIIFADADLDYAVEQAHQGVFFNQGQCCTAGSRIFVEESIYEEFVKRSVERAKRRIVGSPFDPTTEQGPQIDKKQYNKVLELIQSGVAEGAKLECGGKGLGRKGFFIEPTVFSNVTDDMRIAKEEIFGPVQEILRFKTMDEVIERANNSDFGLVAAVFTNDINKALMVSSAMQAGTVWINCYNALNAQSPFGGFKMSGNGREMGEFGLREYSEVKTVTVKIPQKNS
Text: Recombinant enzyme and inhibitor added immediately before assay. Reaction rate measured by resorufin fluorescence.

[10] = target: mALDH1a3 (Mus musculus (Mouse), UniProt Q9JHW9); test: Aldh1a3 enzyme inhibition assay (recombinant enzyme, resorufin fluorescence); format: biochemical
mALDH1a3, sequence (Q9JHW9 whole entry): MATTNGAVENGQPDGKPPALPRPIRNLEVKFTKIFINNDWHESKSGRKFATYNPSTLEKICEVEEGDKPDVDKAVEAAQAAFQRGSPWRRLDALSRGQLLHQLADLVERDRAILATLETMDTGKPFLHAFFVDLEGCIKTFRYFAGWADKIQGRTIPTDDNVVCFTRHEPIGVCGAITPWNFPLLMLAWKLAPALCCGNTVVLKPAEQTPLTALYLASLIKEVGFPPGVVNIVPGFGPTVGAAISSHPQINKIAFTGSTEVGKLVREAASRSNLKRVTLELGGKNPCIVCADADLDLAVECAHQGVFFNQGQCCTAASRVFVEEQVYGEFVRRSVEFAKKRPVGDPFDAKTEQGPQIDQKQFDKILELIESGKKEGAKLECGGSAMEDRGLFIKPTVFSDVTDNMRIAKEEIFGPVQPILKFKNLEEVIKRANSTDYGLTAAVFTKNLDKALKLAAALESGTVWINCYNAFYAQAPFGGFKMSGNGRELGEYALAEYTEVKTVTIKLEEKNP
Description: (§2) Cells were resuspended in 10 mM […] pH 7.4, 10 mM KCl. […] Recombinant enzyme and inhibitor added immediately before assay. Reaction rate measured by resorufin fluorescence.

[11] = target: T2, hALDH1a3; test: as above; format: biochemical
Description: as §2

Question: With `CCc1cnccc1C(=O)Nc1cc2c(cc1F)NC(=O)CC2` [MBE1] as the molecule, how does the pIC50 [1] read?
Answer: 5.78

Question: What about the pIC50 [2] of the same molecule?
Answer: 8.44

Question: And the “cage side observations, adverse reactions” value ([3]; 0 hours to 24 hours post-dosing, mice)?
Answer: no adverse reactions

Question: And the “plasma half-life, IV bolus dosing” value [3]?
Answer: 1.79 h

Question: What about the “plasma half-life, PO oral gavage dosing” value [3] of the same molecule?
Answer: 1.37 h

Question: And the oral bioavailability [3]?
Answer: 88%

Question: And the “time plasma concentrations exceed 5-fold the IC50” value ([3]; oral gavage (PO) and intravenous (IV) administration, n=3 mice per group)?
Answer: > 10 h

Question: And the “efficacy in conjunction with paclitaxel” value [4]?
Answer: effective in treating established metastatic diseases

Question: With `CCc1cnccc1C(=O)Nc1cc(C)c2c(c1)CCC(=O)N2` [Compound 140, 3-ethyl-N-(8-methyl-2-oxo-3,4-dihydro-1H-quinolin-6-yl)pyridine-4-carboxamide] as the molecule, how does the “tumor growth, combined treatment with anti-PD-1 antibody” value ([5]; 40 mg/kg daily equivalent oral medicated diet plus anti-PD-1 200 microgram i.p. Day 11, 14, 18, 21) read?
Answer: synergy with anti-PD-1 antibody in causing tumor regression

Question: And the “tumor growth as a single agent” value [5]?
Answer: successful inhibition of tumor growth as a single agent

Question: And the “tumor growth as a single agent” value ([5]; listed as compound 140)?
Answer: inhibits tumor growth as a single agent

Question: What about the tolerability [6] of the same molecule?
Answer: excellent tolerability

Question: And the tumor growth [6]?
Answer: successful inhibition of tumor growth

Question: And the “tumor growth (caliper measurement, tumor mass at endpoint)” value ([6]; single agent, once daily for 9 days, Compound 140 40 mg/kg intraperitoneal, MBE1.5 25 mg/kg daily equivalent in diet)?
Answer: successful inhibition of tumor growth as a single agent

Question: What about the pIC50 [1] of the same molecule?
Answer: 7.56 and > 7.30

Question: What about the “tumor growth (caliper measurement, tumor mass at endpoint)” value [7] of the same molecule?
Answer: successful inhibition of tumor growth as a single agent

Question: And the pIC50 [8]?
Answer: 7.00

Question: And the pIC50 [9]?
Answer: 7.02

Question: And the pIC50 [2]?
Answer: 8.16 and > 7.30

Question: Which “plasma half-life, IV bolus dosing” value [3] does the source give for `CCc1ccccc1C(=O)Nc1cc2c(cc1F)NC(=O)CC2` [Compound 4] here?
Answer: 1.22 h

Question: What about the “plasma half-life, PO oral gavage dosing” value [3] of the same molecule?
Answer: 1.70 h

Question: What about the oral bioavailability [3] of the same molecule?
Answer: 62.5%

Question: What does the source list for `Cc1cc(NC(=O)c2ccncc2CC(F)(F)F)cc2c1NC(=O)CC2` [Compound 151, N-(8-methyl-2-oxo-3,4-dihydro-1H-quinolin-6-yl)-3-(2,2,2-trifluoroethyl)pyridine-4-carboxamide]?
Answer: tolerability [6]: excellent tolerability; tumor growth [6]: successful inhibition of tumor growth; pIC50 [1]: 7.26 and > 7.30; pIC50 [8]: 7.12; pIC50 [9]: 7.07; pIC50 [2]: 8.90 and > 7.30

Question: With `CCc1cnccc1C(=O)Nc1cc2c(cc1F)NC(=O)CC2` [Compound 1] as the molecule, how does the pIC50 [8] read?
Answer: 5.48

Question: What about the pIC50 [9] of the same molecule?
Answer: 5.48

Question: And the pIC50 [10]?
Answer: 6.60 to 7.00

Question: What about the pIC50 [11] of the same molecule?
Answer: 6.60 to 7.00

Question: With `Cc1cc(Nc2ncc3ccccc3n2)cc2c1NC(=O)C(C)(C)C2` [Compound 160, 3,3,8-trimethyl-6-(quinazolin-2-ylamino)-1,4-dihydroquinolin-2-one] as the molecule, how does the pIC50 [8] read?
Answer: 6.79

Question: What about the pIC50 [9] of the same molecule?
Answer: 6.75

Question: And the pIC50 ([10]; read-out: mAldh1a3 IC50)?
Answer: < 5.30

Question: What about the pIC50 ([11]; read-out: hAldh1a3 IC50) of the same molecule?
Answer: < 5.30
